Measurements reported in patent US20220274927A1, “MEMBRANE-ACTIVE ANTI-BACTERIAL COMPOUNDS AND USES THEREOF” (Trustees of Dartmouth College, priority 2019, published 2022).
Converted amounts (≈) assume the structure as drawn. Where two headings read alike, the source gives them in different places.

Tested on: methicillin-resistant S. aureus (FPR3757)
Experiment: MIC against clinical MRSA strain FPR3757 in Mueller-Hinton broth (CLSI)
Format: cell-based, Staphylococcus aureus
Settings: for fold loss of potency (MIC) relative to the comparator / fold increase in potency (MIC) relative to the comparator: MRSA FPR3757 MIC ratio
Description: The first set of compounds evaluated were analogs at the C-7 and C-8 positions of the initial quinolone hit DNAC-2 since the other HTS hits identified (data not shown) were substituted at these positions (Table 1). Applicants first explored modification at the C-7 position with a small series of electron-donating and withdrawing substituents. […] However, analogs containing electron donating groups at C-7 including ethyl 7, benzyloxy 8, methoxy 9 and methylthio 10 are weakly active displaying MICs of 320-640 μg/mL indicating electron-donating substituents at C-7 are poorly tolerated. […] The C-8 position was evaluated with trifluoromethyl 4 and trifluoromethoxy 5 containing the optimal C-7 substituents. Both 4 and 5 are equipotent to the corresponding C-7 analogs 2 and 3 indicating some flexibility of the quinolone scaffold.

[1] = MRSA clinical strain FPR3757, Mueller-Hinton broth, CLSI guidelines, complete inhibition of observable growth
[2] = Staphylococcus aureus, MRSA, MRSA clinical strain FPR3757, Mueller-Hinton broth, CLSI guidelines, complete inhibition of observable growth, read-out: MIC
[3] = Staphylococcus aureus, MRSA, MRSA clinical strain FPR3757, Mueller-Hinton broth, CLSI guidelines, complete inhibition of observable growth

SMILES	MIC [1]	MIC [2]	further results
FC(F)(F)c1ccc(Nc2cc(N3CCNCC3)nc3cc(C(F)(F)F)ccc23)nc1 [Compound 102]	0.5 to 1 µg/mL	–	–
FC(F)(F)c1ccc2c(Nc3cccc(N4CCOCC4)c3)cc(C(F)(F)F)nc2c1 [Compound 29]	–	> 16 µg/mL	–
CC(=O)c1cccc(Nc2cc(C(F)(F)F)nc3cc(C(F)(F)F)ccc23)c1 [Compound 13]	–	–	MIC (Staphylococcus aureus, MRSA): > 128 µg/mL
O=c1cc(C(F)(F)F)[nH]c2cc(C(F)(F)F)cc(N3CCOCC3)c12 [Compound 118]	–	> 32 µg/mL	–
CC(C)c1ccccc1Nc1cc(C(F)(F)F)nc2cc(C(F)(F)F)ccc12 [Compound 12]	–	320 µg/mL (≈ 803 µM)	–
FC(F)(F)c1ccc2c(NC3CCCCC3)cc(C(F)(F)F)nc2c1 [Compound 57]	>16 µg/mL	–	MIC [3]: > 32 µg/mL
FC(F)(F)c1ccc2c(Nc3ncccn3)cc(C(F)(F)F)nc2c1 [Compound 56]	>32 µg/mL	> 32 µg/mL	–
FC(F)(F)c1ccc(Nc2cc(C(F)(F)F)nc3c(C(F)(F)F)cccc23)nc1 [Compound 47]	–	0.5 µg/mL (≈ 1.18 µM)	–
FC(F)(F)c1ccc2c(N3CCOCC3)cc(C(F)(F)F)nc2c1 [Compound 59]	>32 µg/mL	> 32 µg/mL	–
O=C1Cc2cc(Nc3cc(C(F)(F)F)nc4cc(C(F)(F)F)ccc34)ccc2N1 [Compound 64]	>32 µg/mL	> 32 µg/mL	–
FC(F)(F)c1ccc(Nc2nc(C(F)(F)F)nc3cc(C(F)(F)F)ccc23)nc1 [Compound 91]	–	–	fold loss of potency (MIC) relative to the comparator: 8 fold
FC(F)(F)c1ccc2c(Nc3ccccc3)cc(C(F)(F)F)nc2c1 [Compound 11]	–	–	MIC (Staphylococcus aureus, MRSA): 128 µg/mL (≈ 359 µM)
FC(F)(F)c1ccc2c(NC[C@@H]3CCCN3)cc(C(F)(F)F)nc2c1 [Compound 60]	>32 µg/mL	> 32 µg/mL	–
Fc1ccc(Nc2cc(C(F)(F)F)nc3cc(C(F)(F)F)ccc23)cc1F [Compound 21]	0.12 to 0.25 µg/mL	0.125 to 0.25 µg/mL (≈ 0.319 to 0.637 µM)	–
Fc1cccc(Nc2cc(C(F)(F)F)nc3cc(C(F)(F)F)ccc23)c1 [Compound 18]	–	–	fold loss of potency (MIC) relative to the comparator: 16-64 fold
FC(F)(F)Oc1ccc2c(Nc3ccc(Cl)c(Cl)c3)cc(C(F)(F)F)nc2c1 [Compound 32]	–	0.5 to 1 µg/mL (≈ 1.13 to 2.27 µM)	–
FC(F)(F)c1ccc2c(Nc3ccncc3)cc(C(F)(F)F)nc2c1 [Compound 53]	>32 µg/mL	–	MIC [3]: > 32 µg/mL
FC(F)(F)Oc1ccc2c(Nc3ccc(C(F)(F)F)cn3)cc(C(F)(F)F)nc2c1 [Compound 34]	1 µg/mL (≈ 2.27 µM)	0.5 to 1 µg/mL (≈ 1.13 to 2.27 µM)	–
COc1ccc2c(Nc3ccc(Cl)c(Cl)c3)cc(C(F)(F)F)nc2c1 [Compound 35]	–	2 µg/mL (≈ 5.17 µM)	–
FC(F)(F)c1ccc(Nc2cc(N3CCOCC3)c3ccc(C(F)(F)F)cc3n2)nc1 [Compound 105]	8 µg/mL (≈ 18.1 µM)	–	–
FC(F)(F)c1ccc2c(Nc3cccc(Br)c3)cc(C(F)(F)F)nc2c1 [Compound 19]	–	0.25 µg/mL (≈ 0.574 µM)	–
FC(F)(F)Oc1cccc(Nc2cc(C(F)(F)F)nc3cc(C(F)(F)F)ccc23)c1 [Compound 27]	–	8 µg/mL (≈ 18.2 µM)	–
O=c1cc(C(F)(F)F)[nH]c2cc(Nc3ccc(Cl)c(Cl)c3)cc(C(F)(F)F)c12 [Compound 119]	–	1 µg/mL (≈ 2.27 µM)	–
Cn1cc(Nc2cc(C(F)(F)F)nc3cc(C(F)(F)F)ccc23)ccc1=O [Compound 50]	–	> 32 µg/mL	–

SMILES	MIC [1]	MIC [2]	further results
O=c1cc(C(F)(F)F)[nH]c2cc(Nc3ccc(F)c(F)c3)cc(C(F)(F)F)c12 [Compound 120]	–	4 µg/mL (≈ 9.8 µM)	–
FC(F)(F)c1cccc(Nc2cc(C(F)(F)F)nc3cc(C(F)(F)F)ccc23)c1 [Compound 26]	–	0.25 µg/mL (≈ 0.589 µM)	fold increase in potency (MIC) relative to the comparator: 16 fold
CN(C)c1ccc(Nc2cc(C(F)(F)F)cc3[nH]c(C(F)(F)F)cc(=O)c23)nc1 [Compound 113]	2 µg/mL (≈ 4.8 µM)	1 to 2 µg/mL (≈ 2.4 to 4.8 µM)	–
O=c1cc(C(F)(F)F)[nH]c2cc(C(F)(F)F)cc(Nc3cccc4[nH]ncc34)c12 [Compound 116]	2 µg/mL (≈ 4.85 µM)	1 to 2 µg/mL (≈ 2.43 to 4.85 µM)	–
OC1CCCN(c2cc(C(F)(F)F)nc3cc(C(F)(F)F)ccc23)C1 (stereo not drawn) [Compound 58]	>32 µg/mL	> 32 µg/mL	–
FC(F)(F)Oc1cccc(Nc2cc(C(F)(F)F)nc3cc(OC(F)(F)F)ccc23)c1 [Compound 33]	1 µg/mL (≈ 2.19 µM)	0.5 to 1 µg/mL (≈ 1.1 to 2.19 µM)	–
FC(F)(F)c1ccc2c(Nc3cccc(Cl)c3)cc(C(F)(F)F)nc2c1 [Compound 16]	0.25 µg/mL (≈ 0.64 µM)	0.125 to 0.25 µg/mL (≈ 0.32 to 0.64 µM)	–
FC(F)(F)c1ccc2c(Nc3ccc(Cl)c(Cl)c3)nc(C(F)(F)F)nc2c1 [Compound 89]	0.5 µg/mL (≈ 1.17 µM)	–	fold loss of potency (MIC) relative to the comparator: 8 fold
N#Cc1cccc(Nc2cc(C(F)(F)F)nc3cc(C(F)(F)F)ccc23)c1 [Compound 14]	>32 µg/mL	–	–
CN1Cc2cc(Nc3cc(C(F)(F)F)nc4cc(C(F)(F)F)ccc34)ccc2C1=O [Compound 62]	>32 µg/mL	> 32 µg/mL	–
FC(F)(F)c1ccc2c(Nc3ccc(Cl)cc3)cc(C(F)(F)F)nc2c1 [Compound 17]	0.12 µg/mL (≈ 0.307 µM)	0.125 to 0.25 µg/mL (≈ 0.32 to 0.64 µM)	–
O=c1cc(C(F)(F)F)[nH]c2cc(OC(F)(F)F)ccc12 [Compound 3]	–	4 to 8 µg/mL (≈ 13.5 to 26.9 µM)	–
FC(F)(F)Oc1cccc(Nc2cc(C(F)(F)F)nc3c(OC(F)(F)F)cccc23)c1 [Compound 1]	8 µg/mL (≈ 17.5 µM)	–	–
O=c1cc(Nc2cc(C(F)(F)F)nc3cc(C(F)(F)F)ccc23)cc[nH]1 [Compound 52]	–	> 32 µg/mL	–
FC(F)(F)c1cccc(Nc2cc(C(F)(F)F)nc3c(C(F)(F)F)cccc23)c1 [Compound 46]	–	1 µg/mL (≈ 2.36 µM)	–
O=c1cc(C(F)(F)F)[nH]c2cc(OCc3ccccc3)ccc12 [Compound 8]	640 µg/mL (≈ 2000 µM)	–	–
FC(F)(F)Oc1cccc(Nc2nc(C(F)(F)F)nc3cc(C(F)(F)F)ccc23)c1 [Compound 90]	1 µg/mL (≈ 2.27 µM)	–	fold increase in potency (MIC) relative to the comparator: 8 fold
O=c1cc(C(F)(F)F)[nH]c2c(C(F)(F)F)cccc12 [Compound 4]	–	2 to 4 µg/mL (≈ 7.11 to 14.2 µM)	–
FC(F)(F)c1ccc2c(Nc3ccccc3Cl)cc(C(F)(F)F)nc2c1 [Compound 15]	–	> 16 µg/mL	–
COc1ccc2c(Nc3ccc(F)c(F)c3)cc(C(F)(F)F)nc2c1 [Compound 36]	–	> 32 µg/mL	–
FC(F)(F)c1ccc2c(Nc3cccc(I)c3)cc(C(F)(F)F)nc2c1 [Compound 20]	–	0.25 µg/mL (≈ 0.518 µM)	–
Oc1ncccc1Nc1cc(C(F)(F)F)nc2cc(C(F)(F)F)ccc12 [Compound 51]	–	> 128 µg/mL	–
OCc1cccc(Nc2cc(C(F)(F)F)nc3cc(C(F)(F)F)ccc23)c1 [Compound 23]	–	> 16 µg/mL	–
FC(F)(F)Oc1cccc2c(Nc3ccc(C(F)(F)F)cn3)cc(C(F)(F)F)nc12 [Compound 44]	–	1 µg/mL (≈ 2.27 µM)	–

SMILES	MIC [1]	MIC [2]	further results
FC(F)(F)c1ccc2c(N3CCc4cccnc43)cc(C(F)(F)F)nc2c1 [Compound 63]	>32 µg/mL	> 32 µg/mL	–
COc1cccc(Nc2cc(C(F)(F)F)nc3cc(C(F)(F)F)ccc23)c1 [Compound 25]	–	> 64 µg/mL	–
COc1ccc2c(Nc3ccc(C(F)(F)F)cn3)cc(C(F)(F)F)nc2c1 [Compound 38]	–	32 µg/mL (≈ 82.6 µM)	–
CSc1cccc(Nc2cc(C(F)(F)F)nc3cc(C(F)(F)F)ccc23)c1 [Compound 24]	0.25 to 0.5 µg/mL	–	–
O=c1cc(C(F)(F)F)[nH]c2c(OC(F)(F)F)cccc12 [Compound 5]	–	5 µg/mL (≈ 16.8 µM)	–
FC(F)(F)c1ccc2c(Nc3cc(Cl)ccn3)cc(C(F)(F)F)nc2c1 [Compound 48]	–	2 µg/mL (≈ 5.11 µM)	fold loss of potency (MIC) relative to the comparator: 8 fold
FC(F)(F)c1cc(Nc2ccc(Cl)c(Cl)c2)c2cccc(C(F)(F)F)c2n1 [Compound 45]	–	0.5 to 2 µg/mL (≈ 1.18 to 4.7 µM)	–
FC(F)(F)c1ccc(Nc2cc(N3CCNCC3)c3ccc(C(F)(F)F)cc3n2)nc1 [Compound 103]	4 to 8 µg/mL	–	–
O=c1cc(C(F)(F)F)[nH]c2cc(Cl)ccc12 [Compound 6]	–	20 µg/mL (≈ 80.8 µM)	–
O=c1cc(C(F)(F)F)[nH]c2cc(C(F)(F)F)ccc12 [Compound 2]	5 µg/mL (≈ 17.8 µM)	4 to 8 µg/mL (≈ 14.2 to 28.5 µM)	–
O=c1cc(C(F)(F)F)[nH]c2cc(C(F)(F)F)cc(-c3ccc(C(F)(F)F)nn3)c12 [Compound 114]	1 µg/mL (≈ 2.34 µM)	1 to 2 µg/mL (≈ 2.34 to 4.68 µM)	–
O[C@H]1C[C@H]2CC[C@@H](C1)C2Nc1cc(C(F)(F)F)nc2cc(C(F)(F)F)ccc12 (stereo partly drawn) [Compound 65]	>32 µg/mL	> 32 µg/mL	–
CSc1ccc2c(=O)cc(C(F)(F)F)[nH]c2c1 [Compound 10]	640 µg/mL (≈ 2470 µM)	–	–
COc1ccc2c(=O)cc(C(F)(F)F)[nH]c2c1 [Compound 9]	640 µg/mL (≈ 2630 µM)	320 to 640 µg/mL (≈ 1320 to 2630 µM)	fold loss of potency (MIC) relative to the comparator: 80-160 fold
COc1ccc2c(Nc3cccc(OC(F)(F)F)c3)cc(C(F)(F)F)nc2c1 [Compound 37]	–	> 32 µg/mL	–
O=c1cc(C(F)(F)F)[nH]c2cc(C(F)(F)F)cc(Nc3ccc(F)cn3)c12 [Compound 112]	–	0.12 µg/mL (≈ 0.307 µM)	–
FC(F)(F)c1ccc2c(Nc3cccc4[nH]ncc34)cc(C(F)(F)F)nc2c1 [Compound 61]	>32 µg/mL	> 32 µg/mL	–
FC(F)(F)Oc1cccc2c(Nc3ccc(Cl)c(Cl)c3)cc(C(F)(F)F)nc12 [Compound 42]	–	0.5 µg/mL (≈ 1.13 µM)	–
FC(F)(F)c1ccc2c(Nc3ccc4c(c3)OCO4)cc(C(F)(F)F)nc2c1 [Compound 28]	>4 µg/mL	–	–
FC(F)(F)c1ccc2c(Nc3ccc(C(F)(F)F)nc3)cc(C(F)(F)F)nc2c1 [Compound 49]	–	> 32 µg/mL	–
FC(F)(F)c1ccc2c(Nc3ccc(N4CCOCC4)cc3)cc(C(F)(F)F)nc2c1 [Compound 30]	–	> 16 µg/mL	–
CN(C)S(=O)(=O)c1ccc(Nc2cc(C(F)(F)F)cc3[nH]c(C(F)(F)F)cc(=O)c23)nc1 [Compound 115]	2 µg/mL (≈ 4.16 µM)	–	–
